# PMC6380468, “Investigations on small molecule inhibitors targeting the histone H3K4 tri-methyllysine binding PHD-finger of JmjC histone demethylases” (Bioorganic & Medicinal Chemistry, 2018)
# Experiments:
# KDM7A (PHD-JmjC) = experiment: MALDI-TOF MS H3K9me2 demethylation assay, KDM7A(PHD-JmjC); format: biochemical, human; details: at 100 µM, substrate H3(1–15)K9me2
# Method: (§1) Final concentrations were: 1mM ascorbate, 50 µM (NH4)2Fe(II)(SO4)2 and 200 µM 2OG. The mixture was quenched using formic acid after 10 minutes (KDM7A) or 5 minutes (KDM7B).
# KDM7B(PHD) = target: T1, KDM7B(PHD) (Homo sapiens, UniProt Q9UPP1); experiment: AlphaScreen displacement of H3K4me3-Bn from His-KDM7B(PHD); format: binding; details: AlphaScreen; 12.5 nM protein and 12.5 nM peptide; n ≥ 3; read-out: IC50 for displacement of H3K4me3-Bn from His-KDM7B(PHD)
# T1 construct: made in house
# T1 sequence (Q9UPP1 41-92 limits assumed): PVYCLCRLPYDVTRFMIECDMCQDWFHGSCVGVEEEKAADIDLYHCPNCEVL
# Method: (§2) For peptide displacement assays, 5 µL of the inhibitor dilution series (at a concentration of 4% DMSO in AlphaScreen assay buffer) was pre-incubated with 5 µL of the protein at RT for 15 minutes. Peptide solution (5 µL) was added and incubated for 30 minutes at RT, followed by the addition of 5 µL of a mixture of AlphaScreen Streptavidin donor beads and Nickel Chelate acceptor beads in AlphaScreen assay buffer (20 µg/mL final). The contents were incubated for 60-120 minutes at RT in the dark, followed by measurement of luminescence on a BMG Labtech Pherastar plate reader (Software Ver. 5.30 R3, Firmware Ver. 1.21). The data was plotted in Prism Ver 7.01 (GraphPad Software, Inc.) and fitted to a Log(inhibitor) v/s response – variable slope model in order to obtain IC50 values.
# His-KDM5A(PHD3) = target: T2, His-KDM5A(PHD3) (Homo sapiens, UniProt P29375); experiment: AlphaScreen displacement assay, H3K4me3-Bn from His-KDM5A(PHD3); format: binding; details: AlphaScreen; 25 nM protein and 25 nM peptide; average ± StdDev, n ≥ 3; NM = not measurable within the solubility range; read-out: IC50 for displacement of H3K4me3-Bn from His-KDM5A(PHD3)
# T2 construct: KDM5A(PHD3) (1542 – 1660), encoded by a pGTLV2 vector; made in house; host or cells: E. coli Rosetta 2(DE3)pLysS
# T2 sequence (P29375 1542-1660): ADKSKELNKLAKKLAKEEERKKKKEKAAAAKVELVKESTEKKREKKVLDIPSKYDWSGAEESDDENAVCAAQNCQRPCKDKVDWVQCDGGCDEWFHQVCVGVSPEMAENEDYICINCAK
# Method: AlphaScreen is a homogenous bead-based assay used to study protein-protein interactions.[28] […] AlphaScreen beads were then added and incubated for 1 h. Changes in the AlphaScreen signals with increasing inhibitor concentrations were then measured to quantify the level of KDM5A(PHD3) and H3K4me3 binding, and IC50 values were determined.
# His-tagged PHD finger constructs and H3K4me3-Bn peptides were diluted into AlphaScreen assay buffer (50mM HEPES, 150mM NaCl, 0.1% BSA, 0.01% Tween20, pH 7.5). An 8-point 1:2 dilution series was made for both protein and peptide. With a multichannel pipette (LTS P10), 5 µL protein was dispensed into 8 columns of a 384-well plate, followed by 5 µL of 4% DMSO in AlphaScreen assay buffer. The mixture was incubated at room temperature for 15 minutes, followed by dispensing 5 µL peptide across 8 rows of the 384-well plate, forming a cross-gradient of protein and peptide. The contents were incubated for 30 minutes at room temperature, followed by the addition of 5 µL of a mixture of AlphaScreen Streptavidin donor beads and Nickel Chelate acceptor beads in AlphaScreen assay buffer (20 µg/mL final). The samples were incubated for 60-120 minutes at room temperature in the dark, followed by measurement of luminescence on a BMG Labtech Pherastar plate reader (Software Ver. 5.30 R3, Firmware Ver. 1.21). The data was plotted in Prism Ver 7.01 (GraphPad Software, Inc.) and fitted to a linear model in order to determine the optimal concentration of protein and peptide within the linear signal range for each reader domain.
# as §2
# KDM7A(PHD) = target: T3, KDM7A(PHD) (Homo sapiens, UniProt Q6ZMT4); experiment: AlphaScreen displacement of H3K4me3-Bn from His-KDM7A(PHD); format: binding; details: AlphaScreen; 6.25 nM KDM7A(PHD) and 25 nM peptide; n ≥ 3; read-out: IC50 for displacement of H3K4me3-Bn from His-KDM7A(PHD)
# T3 construct: made in house
# T3 sequence (Q6ZMT4 37-88 limits assumed): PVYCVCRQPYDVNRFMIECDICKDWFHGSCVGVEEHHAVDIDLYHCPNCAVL
# Method: as §2
# [1] = AlphaScreen biotin-His6 counterscreen; details: AlphaScreen interference counterscreen with biotin-His6; unit inferred; DNC = data did not converge to binding model; NM = not measurable within the solubility range
# KDM7B (PHD-JmjC) [2] = target: T4, KDM7B (PHD-JmjC) (Homo sapiens, UniProt Q9UPP1); experiment: AlphaScreen displacement of H3K4me3-Bn from His-KDM7B(PHD-JmjC); format: binding; details: AlphaScreen displacement of H3K4me3-Bn; n = 3; NI = No inhibition seen at 100 μM; read-out: IC50 KDM7B (PHD-JmjC) (Displacement)
# T4 construct: A dual-domain construct of KDM7A/B(PHD-JmjC), consisting of a JmjC domain in addition to the PHD-finger; His; made in house
# Method: A dual-domain construct of KDM7A/B(PHD-JmjC), consisting of a JmjC domain in addition to the PHD-finger (Fig. 1B), was used to test for allosteric inhibition through binding at the PHD-finger.
# as §2
# KDM7B (PHD-JmjC) [3] = target: T4, KDM7B (PHD-JmjC); experiment: MALDI-TOF MS H3K9me2 demethylation assay, KDM7B(PHD-JmjC); format: biochemical; details: at 100 µM; MALDI-TOF MS; substrate H3(1–5)K4me3K9me2; read-out: KDM7B (PHD-JmjC) (Catalytic), inhibition of H3K9me2 demethylation
# Method: H3(1–15)K9me2 and H3(1–5)K4me3K9me2 were used as substrates for KDM7A(PHD-JmjC) and KDM7B(PHD-JmjC), respectively. […] For KDM7B(PHD-JmjC), inhibition was most pronounced for 1a (95%) and 2a (89%) whilst others inhibited more weakly (Table 4).
# as §1, with “For KDM7(PHD-JmjC) assays, 2.5 µM enzyme was used, with 5 µM H3(1-15)K9me2 peptide substrate for KDM7A or H3(1-15)K4me3K9me2 for KDM7B. Final” for “Final”
# T4 sequence (Q9UPP1 37-483 limits assumed): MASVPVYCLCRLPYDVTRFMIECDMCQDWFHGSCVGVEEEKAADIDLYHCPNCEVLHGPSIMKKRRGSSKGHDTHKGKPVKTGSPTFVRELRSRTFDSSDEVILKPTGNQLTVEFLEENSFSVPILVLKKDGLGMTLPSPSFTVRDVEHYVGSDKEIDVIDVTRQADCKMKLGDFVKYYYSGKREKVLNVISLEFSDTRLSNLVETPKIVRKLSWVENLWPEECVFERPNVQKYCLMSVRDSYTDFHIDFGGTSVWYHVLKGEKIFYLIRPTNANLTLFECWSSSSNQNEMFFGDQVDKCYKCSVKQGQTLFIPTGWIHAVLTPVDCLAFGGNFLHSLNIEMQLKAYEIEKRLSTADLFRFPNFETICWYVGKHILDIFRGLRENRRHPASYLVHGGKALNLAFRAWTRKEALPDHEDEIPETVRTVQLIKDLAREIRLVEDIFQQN
IC50 (KDM7B(PHD)),IC50 (His-KDM5A(PHD3)),IC50 (KDM7A(PHD)),IC50 (KDM7B (PHD-JmjC) [2]),inhibition at 100 µM (KDM7B (PHD-JmjC) [3]),SMILES,"KDM7A (PHD-JmjC) (Catalytic), inhibition of H3K9me2 demethylation (KDM7A (PHD-JmjC))",IC50 [1]
355 ± 39 µM,340 ± 44 µM,86 ± 9 µM,120 ± 32 µM,89%,"CCCCc1oc2ccccc2c1C(=O)c1ccc(OCCC[N+](C)(C)C)cc1.[I-] [Compound 2a, 3-(4-(2-Butylbenzofuran-3-carbonyl)phenoxy)-N,N,N-trimethylpropan-1-aminium iodide]",100% (100 µM),4300 ± 163 µM
397 ± 77 µM,166 ± 20 µM,333 ± 39 µM,> 100 µM,95%,"CCCCc1oc2ccccc2c1C(=O)c1ccc(OCCCN(C)C)cc1 [Compound 1a, (2-Butylbenzofuran-3-yl)(4-(3-(dimethylamino)propoxy)phenyl)methanone]",100% (100 µM),484 ± 82 µM
